In US8765777B2, “Compositions and methods of use for tyrosine kinase inhibitors to treat pathogenic infection” (priority 2008, dated 2014):
Entries after “also recorded” stand apart in the source; their conditions may differ.

Key:
[1] = test system: Abl-tyrosine family kinases; conditions: Shah et al. (2004) Science 305:399-401; cited from earlier work
EPEC (strain 2389/69) = experiment: EPEC actin pedestal formation on 3T3 cells; assay type: cell-based, enteropathogenic E. coli
VV (strain WR) = assay type: cell-based, Vaccinia virus
VV [2] = assay type: cell-based, Vaccinia virus
HIV-1 Bal = experiment: p24 production of macrophages infected with HIV-1 Bal; assay type: cell-based
[3] = test system: VV extracellular enveloped virus (EEV); assay type: cell-based, Vaccinia virus
VV [4] = conditions: 100 mg/kg/day via subcutaneous osmotic pump, 10^4 pfu VV intraperitoneally, four days post infection; FIG. 4
[5] = Tolerability of the drugs in uninfected mice
[6] = test system: Mycobacterium tuberculosis (TB); assay type: cell-based
GFP-VV = assay type: cell-based, Vaccinia virus
[7] = up to 100 mg/kg/day i.p., 10 day period

With `Cc1nc(Nc2ncc(C(=O)Nc3c(C)cccc3Cl)s2)cc(N2CCN(CCO)CC2)n1` [BMS-354825, N-(2-chloro-6-methylphenyl)-2-(6-(4-(2-hydroxyethyl)piperazin-1-yl)-2-methylpryimidin-4-ylamino)thiazole-5-carboxamide] as the compound, how does the “potency relative to STI-571” value [1] read?
Its value is “two-log increased potency”.

Which “pedestals in Abl−/−/Arg−/− cells” value (EPEC (strain 2389/69); Abl−/−/Arg−/− cells) does the source give for `CC(C)(C)n1nc(-c2ccc(Cl)cc2)c2c(N)ncnc21` [PP2] here?
The value was “not”.

And the pedestal formation (EPEC (strain 2389/69); concentrations up to 100 μM, the highest tested)?
The pedestal formation was “without effect”.

What about the “concentrations that blocked actin tails” value (VV (strain WR)) of the same compound?
Its value is at least 25 µM.

Which results are given for `Cc1ccc(NC(=O)c2ccc(CN3CCN(C)CC3)cc2)cc1Nc1nccc(-c2cccnc2)n1` [STI-571, 4-[(4-Methyl-1-piperazinyl)methyl]-N-[4-methyl-3-[[4-(3-pyridinyl)-2-pyrimidinyl]amino]-phenyl]benzamide methanesulfonate]?
amount of virus produced (viral replication) (VV [2]): nearly equivalent amounts of virus; EPEC pedestal formation (EPEC (strain 2389/69); 25 μM): did not; plaque formation (VV-WR): did inhibit plaque formation; P24 day 7 (HIV-1 Bal; Cells + HIV-1 Bal + drug 1 μM, HIV-1 Bal alone 322 +/− 28): 287 ± 31 pg/mL; P24 day 14 (HIV-1 Bal; Cells + HIV-1 Bal + drug 1 μM, HIV-1 Bal alone 956 +/− 34): 744 ± 27 pg/mL; P24 day 7 (HIV-1 Bal; Cells + HIV-1 Bal + drug 5 μM): 212 ± 44 pg/mL; P24 day 14 (HIV-1 Bal; Cells + HIV-1 Bal + drug 5 μM): 556 ± 28 pg/mL; P24 day 7 (HIV-1 Bal; Cells + HIV-1 Bal + drug 10 μM): 127 ± 22 pg/mL; P24 day 14 (HIV-1 Bal; Cells + HIV-1 Bal + drug 10 μM): 245 ± 31 pg/mL; P24 day 7 (HIV-1 Bal; Cells + drug 1 μM, no virus): <10 pg/mL; P24 day 14 (HIV-1 Bal; Cells + drug 1 μM, no virus): <10 pg/mL; P24 day 7 (HIV-1 Bal; Cells + drug 5 μM, no virus): <10 pg/mL; P24 day 14 (HIV-1 Bal; Cells + drug 5 μM, no virus): <10 pg/mL; P24 day 7 (HIV-1 Bal; Cells + drug 10 μM, no virus): <10 pg/mL; P24 day 14 (HIV-1 Bal; Cells + drug 10 μM, no virus): <10 pg/mL; reduction of viral replication (p24 levels) (HIV-1 Bal; dose dependent, 1-10 μM): up to 4 fold; actin tail formation (VV (strain WR)): did not block actin tail formation; average number of actin tails per cell (VV (strain WR)): ~3 per cell; cells having no actin tails (VV (strain WR)): 30%; number of actin tails per cell (VV (strain WR)): no detectable effects; reduction of average number of actin tails per cell (VV (strain WR)): 16 fold; viral replication (extranuclear DAPI staining) and transit of GFP-labeled virions to the cell periphery (VV (strain WR)): no effect; VV actin motility, actin tail formation or number (VV (strain WR); methanesulfonate): no discernable effect; also recorded: no difference in actin tail formation or number was evident; formation of comets apposed to plaques [3]: blocked the formation; reduction in PFU of supernatant on BSC-40 cells [3]: ~2 fold; reduction of viral load (copies of VV UDG gene per 250 ng DNA of ovary) (VV [4]): 4-5 logs; weight and other adverse effects in uninfected animals ([5]; 100 mg/kg/day, subcutaneously implanted osmotic pumps): no loss in weight or other adverse effects; tolerability ([5]; intraperitoneal injection, up to 100 mg/kg/day in saline, up to 10 days): well tolerated; pathology upon necropsy with drug alone [5, 7]: no overt pathology; weight loss with drug alone [5, 7]: no indication of weight loss; intercellular survival of M. tuberculosis [6]: increases the intercellular survival

For `Cc1ccc(NC(=O)c2ccc(CN3CCN(Cc4ccccc4)CC3)cc2)cc1Nc1nccc(-c2cccnc2)n1` [STI-X], which plaque formation (VV-WR) is on record?
Its plaque formation is “reduced”.

And the “tolerability by the cells in plaque assays” value (VV-WR)?
Its value is “well tolerated”.

And the actin tail formation (GFP-VV)?
The actin tail formation was “failed to form actin tails”.

What about the “percentage of cells containing DAPI-stained extranuclear viral replication factories” value (GFP-VV) of the same compound?
The value was 4%.

What about the “replication centers (DAPI staining or α-Ptyr pAb) and actin motility” value (GFP-VV) of the same compound?
Its value is “still evident; also recorded: no effect”.

What about the “viral entry (GFP-labeled virions and EVP staining)” value (GFP-VV) of the same compound?
The value was “little detectable effect on viral entry”.
